# Data from ChEMBL document CHEMBL1152107 (Bioorg Med Chem Lett, 1997).
# Key:
# HCT-116 [1] = experiment: The compound was evaluated for the cytotoxicity against human colon cancer cell lines(HCT116), activity expressed as IC50 vs IC50 of Paclitaxel.; format: functional
# M109 = experiment: The compound was evaluated in vivo for the T/C ratio against M-109 lung carcinoma.; format: functional, Mus musculus
# HCT-116 [2] = experiment: The compound was evaluated in vitro for inhibition of human colon cancer cell line HCT116; format: functional, cell-based
# [3] = molecular target: Tubulin alpha chain (Sus scrofa) (UniProt P02550); experiment: The compound was evaluated in vitro in a tubulin polymerization assay, activity expressed as potency of compound relative to Paclitaxel.; format: functional
# Chain of Tubulin alpha chain (Sus scrofa) (P02550 whole entry, looked up): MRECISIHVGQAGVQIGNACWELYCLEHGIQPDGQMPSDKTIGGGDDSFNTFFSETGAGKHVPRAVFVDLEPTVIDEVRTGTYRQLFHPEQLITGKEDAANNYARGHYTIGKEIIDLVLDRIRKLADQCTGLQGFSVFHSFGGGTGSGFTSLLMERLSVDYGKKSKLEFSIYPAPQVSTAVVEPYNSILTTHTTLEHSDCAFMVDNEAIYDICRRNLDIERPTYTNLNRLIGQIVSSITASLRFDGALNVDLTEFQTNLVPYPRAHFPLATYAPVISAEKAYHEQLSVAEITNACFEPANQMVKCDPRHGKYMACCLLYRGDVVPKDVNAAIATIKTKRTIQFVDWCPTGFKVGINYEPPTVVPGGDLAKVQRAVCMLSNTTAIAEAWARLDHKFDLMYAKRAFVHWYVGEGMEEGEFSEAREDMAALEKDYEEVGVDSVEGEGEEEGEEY
IC50 (HCT-116 [2]),Ratio [3],SMILES,Ratio (HCT-116 [1]),T/C (M109)
,,CC(=O)O[C@H]1C(=O)[C@@]2(C)[C@H]([C@H](OC(=O)c3ccccc3)[C@]3(O)C[C@H](OC(=O)[C@H](O)[C@@H](NC(=O)c4ccccc4)c4ccccc4)C(C)=C1C3(C)C)[C@]1(OC(C)=O)CO[C@@H]1C[C@@H]2O [PACLITAXEL],1,166%
> 200 nM,> 100,CC(=O)O[C@H]1C(=O)[C@@]2(C)[C@H]([C@H](OC(=O)c3ccccc3)[C@]3(O)C[C@H](OC(=O)[C@H](O)[C@@H](O)c4ccccc4)C(C)=C1C3(C)C)[C@]1(OC(C)=O)CO[C@@H]1C[C@@H]2O,>100,
6.6 nM,1.5,CC(=O)O[C@H]1C(=O)[C@@]2(C)[C@H]([C@H](OC(=O)c3ccccc3)[C@]3(O)C[C@H](OC(=O)[C@H](O)[C@@H](OC(=O)NC(C)(C)C)c4ccccc4)C(C)=C1C3(C)C)[C@]1(OC(C)=O)CO[C@@H]1C[C@@H]2O,3.3,166%
10.3 nM,7.8,CC(=O)O[C@@]12CO[C@@H]1C[C@H](O)[C@@]1(C)C(=O)[C@H](O)C3=C(C)[C@@H](OC(=O)[C@H](O)[C@@H](OC(=O)NC(C)(C)C)c4ccccc4)C[C@@](O)([C@@H](OC(=O)c4ccccc4)C12)C3(C)C (some centres not stated),5.1,
